# Values of other authors as cited in patent US20190022229A1, “CANNABINOID/TERPENE ENRICHED CAPRYLIC ACID” (priority 2017, published 2019).
# Conditions: over an eight-hour period; compared with capric acid (C10) alone; from Vandenberghe et al. 2016
compound,measurement,value
CCCCCCCC(=O)O [caprylic acid],increase in total plasma ketone levels relative to capric acid (C10) alone,approximately three times more
